From ChEMBL document CHEMBL3885881, “DrugMatrix”

Organism: Rattus norvegicus
Assay: DrugMatrix - Regimen: Daily Repeat
Type: toxicity, organism-based, Sprague-Dawley
Set-up: regimen Daily Repeat, gender Male, age 6-8 weeks
Conditions: in vivo, po, route oral GAVAGE, vehicle 100 % WATER; for ABSOLUTE BASOPHIL / ABSOLUTE EOSINOPHIL / ABSOLUTE LYMPHOCYTE / ABSOLUTE MONOCYTE / ABSOLUTE SEGMENTED NEUTROPHIL / BASOPHIL / EOSINOPHIL / ERYTHROCYTE COUNT / HEMATOCRIT / HEMOGLOBIN / LEUKOCYTE COUNT / LYMPHOCYTE / MEAN CORPUSCULAR HEMOGLOBIN / MEAN CORPUSCULAR HEMOGLOBIN CONCENTRATION / MEAN CORPUSCULAR VOLUME / MONOCYTE / NEUTROPHIL / NUCLEATED RED BLOOD CELLS / PLATELET COUNT: tissue Blood; for ALANINE AMINOTRANSFERASE / ALBUMIN / ALKALINE PHOSPHATASE / ASPARTATE AMINOTRANSFERASE / BLOOD UREA NITROGEN / CARBON DIOXIDE / CHLORIDE / CHOLESTEROL / CREATINE PHOSPHOKINASE / CREATININE / GLUCOSE / LACTATE DEHYDROGENASE / LIPASE / PHOSPHORUS / POTASSIUM / SODIUM / TOTAL BILIRUBIN / TOTAL PROTEIN / URIC ACID: tissue Plasma
[1] = 0 mg/kg, 72 h, dose level Control, time 3 day
[2] = 0 mg/kg, 120 h, dose level Control, time 5 day
[3] = 60 mg/kg, 72 h, dose level Low, time 3 day
[4] = 60 mg/kg, 120 h, dose level Low, time 5 day

In the case of `ClC(Cl)Cl` [CHLOROFORM], the “ABSOLUTE BASOPHIL” value [1] is reported as 0 CELLS/uL, the “ABSOLUTE EOSINOPHIL” value [1] is reported as 86.33 CELLS/uL and the “ABSOLUTE LYMPHOCYTE” value [1] is reported as 12090.17 CELLS/uL. The “ABSOLUTE MONOCYTE” value [1] was 166.67 CELLS/uL, the “ABSOLUTE SEGMENTED NEUTROPHIL” value [1] was 1090.17 CELLS/uL and the BASOPHIL [1] was 0%. The EOSINOPHIL [1] was 0.67%, the “ERYTHROCYTE COUNT” value [1] was 5.57 x10E6/uL and the HEMATOCRIT [1] was 35.33%. For the same compound, the HEMOGLOBIN [1] was 13.83 G/DL, the “LEUKOCYTE COUNT” value [1] was 13.43 x10E3/uL and the LYMPHOCYTE [1] was 89.83%. The “MEAN CORPUSCULAR HEMOGLOBIN” value [1] was 24.88 pg, the “MEAN CORPUSCULAR HEMOGLOBIN CONCENTRATION” value [1] was 39.15 G/DL and the “MEAN CORPUSCULAR VOLUME” value [1] was 63.52 fL. The MONOCYTE [1] was 1.17%, the NEUTROPHIL [1] was 8.33% and the “NUCLEATED RED BLOOD CELLS” value [1] was 0 /100WBC. The “PLATELET COUNT” value [1] was 1181.33 x10E3/uL, the “ALANINE AMINOTRANSFERASE” value [1] was 48.33 u/L and the ALBUMIN [1] was 4.1 G/DL. For the same compound, the “ALKALINE PHOSPHATASE” value [1] was 395 u/L, the “ASPARTATE AMINOTRANSFERASE” value [1] was 81.83 u/L and the “BLOOD UREA NITROGEN” value [1] was 15.83 mg/dL. For the same compound, the “CARBON DIOXIDE” value [1] was 24.17 mmol/L, the CHLORIDE [1] was 103.83 MEQ/L and the CHOLESTEROL [1] was 63.67 mg/dL. The “CREATINE PHOSPHOKINASE” value [1] was 372.83 u/L, the CREATININE [1] was 0.18 mg/dL and the GLUCOSE [1] was 173.83 mg/dL. For the same compound, the “LACTATE DEHYDROGENASE” value [1] was 188.33 u/L, the LIPASE [1] was 9.5 u/L and the PHOSPHORUS [1] was 11.95 mg/dL. The POTASSIUM [1] was 5.99 MEQ/L, the SODIUM [1] was 144.43 MEQ/L and the “TOTAL BILIRUBIN” value [1] was 0.15 mg/dL. For the same compound, the “TOTAL PROTEIN” value [1] was 5.95 G/DL, the “URIC ACID” value [1] was 1.82 mg/dL and the “ABSOLUTE BASOPHIL” value [2] was 0 CELLS/uL. The “ABSOLUTE EOSINOPHIL” value [2] was 26.67 CELLS/uL, the “ABSOLUTE LYMPHOCYTE” value [2] was 7583.83 CELLS/uL and the “ABSOLUTE MONOCYTE” value [2] was 131.33 CELLS/uL. The “ABSOLUTE SEGMENTED NEUTROPHIL” value [2] was 674.83 CELLS/uL, the BASOPHIL [2] was 0% and the EOSINOPHIL [2] was 0.33%. The “ERYTHROCYTE COUNT” value [2] was 5.78 x10E6/uL, the HEMATOCRIT [2] was 36.48% and the HEMOGLOBIN [2] was 14.03 G/DL. For the same compound, the “LEUKOCYTE COUNT” value [2] was 8.42 x10E3/uL, the LYMPHOCYTE [2] was 89.83% and the “MEAN CORPUSCULAR HEMOGLOBIN” value [2] was 24.3 pg. For the same compound, the “MEAN CORPUSCULAR HEMOGLOBIN CONCENTRATION” value [2] was 38.52 G/DL, the “MEAN CORPUSCULAR VOLUME” value [2] was 63.15 fL and the MONOCYTE [2] was 1.67%. The NEUTROPHIL [2] was 8.17%, the “NUCLEATED RED BLOOD CELLS” value [2] was 0 /100WBC and the “PLATELET COUNT” value [2] was 1186.67 x10E3/uL. The “ALANINE AMINOTRANSFERASE” value [2] was 50.17 u/L, the ALBUMIN [2] was 4.07 G/DL and the “ALKALINE PHOSPHATASE” value [2] was 367.5 u/L. For the same compound, the “ASPARTATE AMINOTRANSFERASE” value [2] was 81.67 u/L, the “BLOOD UREA NITROGEN” value [2] was 16.17 mg/dL and the “CARBON DIOXIDE” value [2] was 32.33 mmol/L. The CHLORIDE [2] was 101.5 MEQ/L, the CHOLESTEROL [2] was 65.33 mg/dL and the “CREATINE PHOSPHOKINASE” value [2] was 255.33 u/L. For the same compound, the CREATININE [2] was 0.17 mg/dL, the GLUCOSE [2] was 139.33 mg/dL and the “LACTATE DEHYDROGENASE” value [2] was 95 u/L. The LIPASE [2] was 10.5 u/L, the PHOSPHORUS [2] was 10.38 mg/dL and the POTASSIUM [2] was 6.11 MEQ/L. The SODIUM [2] was 145.55 MEQ/L, the “TOTAL BILIRUBIN” value [2] was 0.17 mg/dL and the “TOTAL PROTEIN” value [2] was 5.98 G/DL. The “URIC ACID” value [2] was 0.93 mg/dL, the “ABSOLUTE BASOPHIL” value [3] was 0 CELLS/uL and the “ABSOLUTE EOSINOPHIL” value [3] was 102.33 CELLS/uL. For the same compound, the “ABSOLUTE LYMPHOCYTE” value [3] was 13682.67 CELLS/uL, the “ABSOLUTE MONOCYTE” value [3] was 170.33 CELLS/uL and the “ABSOLUTE SEGMENTED NEUTROPHIL” value [3] was 1778 CELLS/uL. The BASOPHIL [3] was 0%, the EOSINOPHIL [3] was 0.67% and the “ERYTHROCYTE COUNT” value [3] was 5.57 x10E6/uL. For the same compound, the HEMATOCRIT [3] was 35.2%, the HEMOGLOBIN [3] was 13.87 G/DL and the “LEUKOCYTE COUNT” value [3] was 15.73 x10E3/uL. The LYMPHOCYTE [3] was 86.67%, the “MEAN CORPUSCULAR HEMOGLOBIN” value [3] was 24.87 pg and the “MEAN CORPUSCULAR HEMOGLOBIN CONCENTRATION” value [3] was 39.37 G/DL. The “MEAN CORPUSCULAR VOLUME” value [3] was 63.2 fL, the MONOCYTE [3] was 1% and the NEUTROPHIL [3] was 11.67%. The “NUCLEATED RED BLOOD CELLS” value [3] was 0 /100WBC, the “PLATELET COUNT” value [3] was 1237 x10E3/uL and the “ALANINE AMINOTRANSFERASE” value [3] was 53 u/L. For the same compound, the ALBUMIN [3] was 3.97 G/DL, the “ALKALINE PHOSPHATASE” value [3] was 363.67 u/L and the “ASPARTATE AMINOTRANSFERASE” value [3] was 98.67 u/L. For the same compound, the “BLOOD UREA NITROGEN” value [3] was 15.33 mg/dL, the “CARBON DIOXIDE” value [3] was 23.33 mmol/L and the CHLORIDE [3] was 103.33 MEQ/L. For the same compound, the CHOLESTEROL [3] was 70.67 mg/dL, the “CREATINE PHOSPHOKINASE” value [3] was 579.33 u/L and the CREATININE [3] was 0.13 mg/dL. The GLUCOSE [3] was 155.67 mg/dL, the “LACTATE DEHYDROGENASE” value [3] was 507.67 u/L and the LIPASE [3] was 9 u/L. The PHOSPHORUS [3] was 12.8 mg/dL, the POTASSIUM [3] was 5.78 MEQ/L and the SODIUM [3] was 143.9 MEQ/L. The “TOTAL BILIRUBIN” value [3] was 0.2 mg/dL, the “TOTAL PROTEIN” value [3] was 5.67 G/DL and the “URIC ACID” value [3] was 1.83 mg/dL. The “ABSOLUTE BASOPHIL” value [4] was 0 CELLS/uL, the “ABSOLUTE EOSINOPHIL” value [4] was 47.67 CELLS/uL and the “ABSOLUTE LYMPHOCYTE” value [4] was 10405 CELLS/uL. The “ABSOLUTE MONOCYTE” value [4] was 114.67 CELLS/uL, the “ABSOLUTE SEGMENTED NEUTROPHIL” value [4] was 899.33 CELLS/uL and the BASOPHIL [4] was 0%. For the same compound, the EOSINOPHIL [4] was 0.33%, the “ERYTHROCYTE COUNT” value [4] was 6.07 x10E6/uL and the HEMATOCRIT [4] was 37.63%. The HEMOGLOBIN [4] was 14.23 G/DL, the “LEUKOCYTE COUNT” value [4] was 11.47 x10E3/uL and the LYMPHOCYTE [4] was 90%. For the same compound, the “MEAN CORPUSCULAR HEMOGLOBIN” value [4] was 23.5 pg, the “MEAN CORPUSCULAR HEMOGLOBIN CONCENTRATION” value [4] was 37.87 G/DL and the “MEAN CORPUSCULAR VOLUME” value [4] was 62.07 fL. The MONOCYTE [4] was 1%, the NEUTROPHIL [4] was 8.67% and the “NUCLEATED RED BLOOD CELLS” value [4] was 0 /100WBC. The “PLATELET COUNT” value [4] was 1244.67 x10E3/uL, the “ALANINE AMINOTRANSFERASE” value [4] was 54.33 u/L and the ALBUMIN [4] was 4.27 G/DL. For the same compound, the “ALKALINE PHOSPHATASE” value [4] was 299.67 u/L, the “ASPARTATE AMINOTRANSFERASE” value [4] was 84.33 u/L and the “BLOOD UREA NITROGEN” value [4] was 16 mg/dL. The “CARBON DIOXIDE” value [4] was 30.67 mmol/L, the CHLORIDE [4] was 102 MEQ/L and the CHOLESTEROL [4] was 59.67 mg/dL. For the same compound, the “CREATINE PHOSPHOKINASE” value [4] was 401 u/L, the CREATININE [4] was 0.22 mg/dL and the GLUCOSE [4] was 139.33 mg/dL. For the same compound, the “LACTATE DEHYDROGENASE” value [4] was 140 u/L, the LIPASE [4] was 10 u/L and the PHOSPHORUS [4] was 10.83 mg/dL.
